Source: ChEMBL document CHEMBL5465560, “Selectivity Literature for EUbOPEN Chemogenomic Library” (2024)
Each block holds one compound with its values, some of them ahead of it.

Legend:
[1] = target: Delta-type opioid receptor (Homo sapiens, UniProt P41143); experiment: Selectivity interaction (Eurofins CEREP Diversity Profile (receptors and ion channels)) EUB0000279b OPRD1; settings: at 10 µM
[2] = target: L-type calcium channel Cav1.2 (CACNA1C) (Homo sapiens, UniProt Q13936); experiment: Selectivity interaction (Eurofins CEREP Diversity Profile (receptors and ion channels)) EUB0000279b CACNA1C; settings: at 10 µM, read-out: % of control
L-type calcium channel Cav1.2 (CACNA1C), sequence (Q13936 whole entry): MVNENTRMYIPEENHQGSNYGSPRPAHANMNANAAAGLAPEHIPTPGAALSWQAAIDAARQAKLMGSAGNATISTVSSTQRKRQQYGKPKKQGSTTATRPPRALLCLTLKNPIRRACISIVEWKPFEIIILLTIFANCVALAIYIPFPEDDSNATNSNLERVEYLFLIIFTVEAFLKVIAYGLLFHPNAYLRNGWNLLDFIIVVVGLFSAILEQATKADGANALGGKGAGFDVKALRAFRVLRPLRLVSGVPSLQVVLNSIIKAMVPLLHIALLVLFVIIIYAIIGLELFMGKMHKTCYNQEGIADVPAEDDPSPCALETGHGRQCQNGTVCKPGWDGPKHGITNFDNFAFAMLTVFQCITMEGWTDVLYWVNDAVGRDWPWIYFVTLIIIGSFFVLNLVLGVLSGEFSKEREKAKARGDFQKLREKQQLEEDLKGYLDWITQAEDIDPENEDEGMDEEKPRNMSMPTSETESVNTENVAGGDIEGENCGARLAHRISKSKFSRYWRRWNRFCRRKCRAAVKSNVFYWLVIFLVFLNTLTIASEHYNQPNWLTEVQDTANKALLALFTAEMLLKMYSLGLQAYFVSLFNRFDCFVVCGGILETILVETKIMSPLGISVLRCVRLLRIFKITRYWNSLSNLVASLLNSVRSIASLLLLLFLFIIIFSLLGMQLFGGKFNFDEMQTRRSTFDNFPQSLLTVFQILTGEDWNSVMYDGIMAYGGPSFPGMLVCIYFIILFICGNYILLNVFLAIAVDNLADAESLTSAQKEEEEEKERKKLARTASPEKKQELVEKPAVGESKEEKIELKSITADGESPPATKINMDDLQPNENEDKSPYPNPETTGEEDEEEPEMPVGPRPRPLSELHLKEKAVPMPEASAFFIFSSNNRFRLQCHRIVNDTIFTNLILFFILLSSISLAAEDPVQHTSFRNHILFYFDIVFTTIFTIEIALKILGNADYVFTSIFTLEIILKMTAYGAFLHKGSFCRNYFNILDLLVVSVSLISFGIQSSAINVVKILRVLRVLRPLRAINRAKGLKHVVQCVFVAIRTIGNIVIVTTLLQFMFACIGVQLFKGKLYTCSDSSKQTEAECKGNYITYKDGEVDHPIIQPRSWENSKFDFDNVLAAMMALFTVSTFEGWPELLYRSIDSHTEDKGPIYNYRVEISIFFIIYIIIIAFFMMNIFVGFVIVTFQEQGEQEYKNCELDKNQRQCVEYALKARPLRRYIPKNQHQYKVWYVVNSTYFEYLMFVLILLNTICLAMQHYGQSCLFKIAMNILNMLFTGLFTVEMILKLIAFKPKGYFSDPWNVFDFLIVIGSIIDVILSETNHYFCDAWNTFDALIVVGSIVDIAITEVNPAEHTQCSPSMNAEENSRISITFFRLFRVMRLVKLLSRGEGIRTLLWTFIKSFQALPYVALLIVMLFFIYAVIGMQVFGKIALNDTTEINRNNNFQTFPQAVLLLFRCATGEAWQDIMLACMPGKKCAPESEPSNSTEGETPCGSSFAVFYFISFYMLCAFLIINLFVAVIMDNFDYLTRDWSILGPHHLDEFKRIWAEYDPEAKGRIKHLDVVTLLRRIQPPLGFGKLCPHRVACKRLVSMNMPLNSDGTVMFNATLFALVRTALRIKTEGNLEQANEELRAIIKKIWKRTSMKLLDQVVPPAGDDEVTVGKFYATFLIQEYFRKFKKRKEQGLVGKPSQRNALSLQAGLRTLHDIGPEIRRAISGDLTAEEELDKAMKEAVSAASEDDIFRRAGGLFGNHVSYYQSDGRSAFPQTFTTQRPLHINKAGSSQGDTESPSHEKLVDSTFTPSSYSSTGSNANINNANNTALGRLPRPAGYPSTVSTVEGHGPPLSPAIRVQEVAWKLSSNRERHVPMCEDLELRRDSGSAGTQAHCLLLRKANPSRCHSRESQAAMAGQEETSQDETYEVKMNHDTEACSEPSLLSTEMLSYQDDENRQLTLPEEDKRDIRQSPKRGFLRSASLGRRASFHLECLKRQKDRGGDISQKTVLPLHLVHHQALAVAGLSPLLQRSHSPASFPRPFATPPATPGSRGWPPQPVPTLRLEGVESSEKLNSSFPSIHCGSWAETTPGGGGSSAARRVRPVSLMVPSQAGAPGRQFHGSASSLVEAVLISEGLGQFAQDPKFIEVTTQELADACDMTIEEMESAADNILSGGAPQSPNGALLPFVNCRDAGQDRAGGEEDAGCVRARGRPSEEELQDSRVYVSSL

[3] = target: Mitogen-activated protein kinase 10 (Homo sapiens, UniProt P53779); experiment: Selectivity interaction (KinomeScan (DiscoverX)) EUB0000666a MAPK10; settings: at 10 µM
[4] = Selectivity interaction (Rat whole blood B cell activation assay) EUB0000877a PIK3CD; assay type: tissue-based
[5] = target: Mitogen-activated protein kinase kinase kinase kinase 5 (Homo sapiens) (UniProt Q9Y4K4); settings: at 10 µM
[6] = target: Serine/threonine-protein kinase 38 (Homo sapiens) (UniProt Q15208); experiment: Selectivity interaction (ActivX KiNativ screen (kinase selectivity in THP-1 cell lysates)) EUB0000639a STK38; assay type: subcellular; settings: lysate, at 0.2 µM
Serine/threonine-protein kinase 38 (Homo sapiens), sequence (Q15208 2-465 limits assumed): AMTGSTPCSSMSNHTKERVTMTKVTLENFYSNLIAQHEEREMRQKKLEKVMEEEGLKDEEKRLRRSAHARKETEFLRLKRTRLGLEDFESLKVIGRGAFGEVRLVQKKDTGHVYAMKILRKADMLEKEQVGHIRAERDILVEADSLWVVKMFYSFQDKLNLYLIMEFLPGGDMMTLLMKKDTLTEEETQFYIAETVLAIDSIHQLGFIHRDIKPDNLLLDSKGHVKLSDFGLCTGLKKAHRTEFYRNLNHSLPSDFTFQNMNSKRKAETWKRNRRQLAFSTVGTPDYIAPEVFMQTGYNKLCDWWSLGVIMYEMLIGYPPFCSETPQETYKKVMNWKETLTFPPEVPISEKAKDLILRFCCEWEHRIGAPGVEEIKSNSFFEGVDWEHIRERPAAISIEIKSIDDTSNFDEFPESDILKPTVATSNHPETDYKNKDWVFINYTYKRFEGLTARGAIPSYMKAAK

[7] = target: Protein kinase C delta type (Homo sapiens) (UniProt Q05655); experiment: Selectivity interaction (KinomeScan (DiscoverX)) EUB0001049a PRKCD; settings: at 1 µM
[8] = target: T1, Testis-specific serine/threonine-protein kinase 1 (Homo sapiens) (UniProt Q9BXA7); experiment: Selectivity interaction (KinomeScan (DiscoverX)) EUB0001049a TSSK1B; settings: at 1 µM
T1 sequence (whole entry): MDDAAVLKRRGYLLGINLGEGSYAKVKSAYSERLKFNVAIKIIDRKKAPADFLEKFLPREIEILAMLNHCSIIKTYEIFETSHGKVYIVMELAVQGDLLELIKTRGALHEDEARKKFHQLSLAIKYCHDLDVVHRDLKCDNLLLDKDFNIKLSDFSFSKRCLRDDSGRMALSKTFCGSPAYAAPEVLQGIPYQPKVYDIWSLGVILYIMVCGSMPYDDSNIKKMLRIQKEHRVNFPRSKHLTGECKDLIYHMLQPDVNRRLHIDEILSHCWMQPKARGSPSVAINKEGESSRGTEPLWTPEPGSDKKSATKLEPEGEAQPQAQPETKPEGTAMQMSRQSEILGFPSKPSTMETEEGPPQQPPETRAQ

[9] = target: Aurora kinase B (Homo sapiens, UniProt Q96GD4); experiment: Selectivity interaction (Ambit KINOMEscan and KiNATiv profiling in Jurkat cells) EUB0000090b AURKB; assay type: cell-based; settings: at 1 µM
Aurora kinase B, sequence (Q96GD4 whole entry): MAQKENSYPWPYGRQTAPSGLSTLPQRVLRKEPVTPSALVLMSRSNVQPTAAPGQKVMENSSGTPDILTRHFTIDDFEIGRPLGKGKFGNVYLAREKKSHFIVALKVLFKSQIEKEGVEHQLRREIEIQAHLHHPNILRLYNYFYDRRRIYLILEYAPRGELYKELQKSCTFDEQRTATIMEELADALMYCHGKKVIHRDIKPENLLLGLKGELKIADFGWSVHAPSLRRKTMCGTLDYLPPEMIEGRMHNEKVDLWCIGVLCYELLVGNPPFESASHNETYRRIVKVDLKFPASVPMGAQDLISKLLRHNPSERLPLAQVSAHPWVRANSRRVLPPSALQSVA

[10] = target: Phosphatidylinositol 4-kinase beta (Homo sapiens, UniProt Q9UBF8); experiment: Selectivity interaction (Kinase panel (KiNativ target engagement assay in Jurkat cells)) EUB0001635a PI4KB; assay type: cell-based; settings: Selectivity number of off-targets 0.0, Selectivity number of targets 233.0, Source Knowledge https://www.sciencedirect.com/science/article/pii/S2451945619300674?via%3Dihub, at 1 µM
[11] = target: Cyclin-dependent kinase 19 (Homo sapiens) (UniProt Q9BWU1); experiment: Selectivity interaction (KinomeScan (DiscoverX)) EUB0000229b CDK19; settings: at 10 µM
[12] = target: T2, Serine/threonine-protein kinase TNNI3K (Homo sapiens) (UniProt Q59H18); experiment: Selectivity interaction (KinomeScan (DiscoverX)) EUB0000618a TNNI3K; settings: at 10 µM
T2 sequence (whole entry): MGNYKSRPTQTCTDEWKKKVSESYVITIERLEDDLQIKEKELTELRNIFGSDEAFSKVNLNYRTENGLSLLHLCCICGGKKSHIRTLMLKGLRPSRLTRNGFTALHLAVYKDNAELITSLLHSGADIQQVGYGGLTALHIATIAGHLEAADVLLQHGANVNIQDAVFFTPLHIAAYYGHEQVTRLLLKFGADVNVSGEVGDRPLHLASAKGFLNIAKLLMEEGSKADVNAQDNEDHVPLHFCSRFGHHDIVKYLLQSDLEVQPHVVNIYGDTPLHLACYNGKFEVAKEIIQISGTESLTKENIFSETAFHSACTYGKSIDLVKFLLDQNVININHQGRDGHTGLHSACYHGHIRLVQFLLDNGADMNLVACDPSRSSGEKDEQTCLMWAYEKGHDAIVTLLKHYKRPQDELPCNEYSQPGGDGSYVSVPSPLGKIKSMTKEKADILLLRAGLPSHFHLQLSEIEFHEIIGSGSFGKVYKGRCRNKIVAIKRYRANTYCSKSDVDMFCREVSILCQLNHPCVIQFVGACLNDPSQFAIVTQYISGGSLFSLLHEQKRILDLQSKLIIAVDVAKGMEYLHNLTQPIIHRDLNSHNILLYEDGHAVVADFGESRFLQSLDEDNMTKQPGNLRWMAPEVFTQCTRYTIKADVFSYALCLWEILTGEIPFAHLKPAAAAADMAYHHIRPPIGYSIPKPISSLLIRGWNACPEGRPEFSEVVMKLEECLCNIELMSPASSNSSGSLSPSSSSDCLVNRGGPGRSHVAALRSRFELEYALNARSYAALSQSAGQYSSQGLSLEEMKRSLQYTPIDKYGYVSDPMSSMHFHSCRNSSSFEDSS

[13] = target: T3, Serine/threonine-protein kinase BRSK2 (Homo sapiens) (UniProt Q8IWQ3); experiment: Selectivity interaction (KinomeScan (DiscoverX)) EUB0000618a BRSK2; settings: at 10 µM
T3 sequence (whole entry): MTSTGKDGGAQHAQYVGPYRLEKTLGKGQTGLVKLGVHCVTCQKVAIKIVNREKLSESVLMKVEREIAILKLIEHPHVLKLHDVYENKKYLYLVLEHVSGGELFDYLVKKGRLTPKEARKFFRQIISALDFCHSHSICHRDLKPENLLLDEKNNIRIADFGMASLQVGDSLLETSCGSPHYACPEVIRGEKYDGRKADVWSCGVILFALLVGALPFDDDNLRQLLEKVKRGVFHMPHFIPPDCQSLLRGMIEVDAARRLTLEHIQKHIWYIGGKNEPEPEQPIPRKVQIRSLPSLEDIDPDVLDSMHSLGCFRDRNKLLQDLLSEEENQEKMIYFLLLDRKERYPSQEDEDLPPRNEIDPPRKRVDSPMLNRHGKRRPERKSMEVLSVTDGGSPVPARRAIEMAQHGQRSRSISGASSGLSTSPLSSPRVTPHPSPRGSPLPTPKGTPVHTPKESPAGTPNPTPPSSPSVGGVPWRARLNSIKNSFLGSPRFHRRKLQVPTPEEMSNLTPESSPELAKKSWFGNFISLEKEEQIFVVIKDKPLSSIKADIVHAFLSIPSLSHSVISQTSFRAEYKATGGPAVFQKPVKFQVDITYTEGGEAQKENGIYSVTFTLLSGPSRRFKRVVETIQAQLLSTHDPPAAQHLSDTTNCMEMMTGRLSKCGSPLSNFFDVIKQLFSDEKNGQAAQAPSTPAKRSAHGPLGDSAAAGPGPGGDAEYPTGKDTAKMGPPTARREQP

[14] = target: Citron Rho-interacting kinase (Homo sapiens) (UniProt O14578); experiment: Selectivity interaction (KinomeScan (DiscoverX)) EUB0001619a CIT; settings: at 1 µM
Citron Rho-interacting kinase (Homo sapiens), sequence (O14578 whole entry): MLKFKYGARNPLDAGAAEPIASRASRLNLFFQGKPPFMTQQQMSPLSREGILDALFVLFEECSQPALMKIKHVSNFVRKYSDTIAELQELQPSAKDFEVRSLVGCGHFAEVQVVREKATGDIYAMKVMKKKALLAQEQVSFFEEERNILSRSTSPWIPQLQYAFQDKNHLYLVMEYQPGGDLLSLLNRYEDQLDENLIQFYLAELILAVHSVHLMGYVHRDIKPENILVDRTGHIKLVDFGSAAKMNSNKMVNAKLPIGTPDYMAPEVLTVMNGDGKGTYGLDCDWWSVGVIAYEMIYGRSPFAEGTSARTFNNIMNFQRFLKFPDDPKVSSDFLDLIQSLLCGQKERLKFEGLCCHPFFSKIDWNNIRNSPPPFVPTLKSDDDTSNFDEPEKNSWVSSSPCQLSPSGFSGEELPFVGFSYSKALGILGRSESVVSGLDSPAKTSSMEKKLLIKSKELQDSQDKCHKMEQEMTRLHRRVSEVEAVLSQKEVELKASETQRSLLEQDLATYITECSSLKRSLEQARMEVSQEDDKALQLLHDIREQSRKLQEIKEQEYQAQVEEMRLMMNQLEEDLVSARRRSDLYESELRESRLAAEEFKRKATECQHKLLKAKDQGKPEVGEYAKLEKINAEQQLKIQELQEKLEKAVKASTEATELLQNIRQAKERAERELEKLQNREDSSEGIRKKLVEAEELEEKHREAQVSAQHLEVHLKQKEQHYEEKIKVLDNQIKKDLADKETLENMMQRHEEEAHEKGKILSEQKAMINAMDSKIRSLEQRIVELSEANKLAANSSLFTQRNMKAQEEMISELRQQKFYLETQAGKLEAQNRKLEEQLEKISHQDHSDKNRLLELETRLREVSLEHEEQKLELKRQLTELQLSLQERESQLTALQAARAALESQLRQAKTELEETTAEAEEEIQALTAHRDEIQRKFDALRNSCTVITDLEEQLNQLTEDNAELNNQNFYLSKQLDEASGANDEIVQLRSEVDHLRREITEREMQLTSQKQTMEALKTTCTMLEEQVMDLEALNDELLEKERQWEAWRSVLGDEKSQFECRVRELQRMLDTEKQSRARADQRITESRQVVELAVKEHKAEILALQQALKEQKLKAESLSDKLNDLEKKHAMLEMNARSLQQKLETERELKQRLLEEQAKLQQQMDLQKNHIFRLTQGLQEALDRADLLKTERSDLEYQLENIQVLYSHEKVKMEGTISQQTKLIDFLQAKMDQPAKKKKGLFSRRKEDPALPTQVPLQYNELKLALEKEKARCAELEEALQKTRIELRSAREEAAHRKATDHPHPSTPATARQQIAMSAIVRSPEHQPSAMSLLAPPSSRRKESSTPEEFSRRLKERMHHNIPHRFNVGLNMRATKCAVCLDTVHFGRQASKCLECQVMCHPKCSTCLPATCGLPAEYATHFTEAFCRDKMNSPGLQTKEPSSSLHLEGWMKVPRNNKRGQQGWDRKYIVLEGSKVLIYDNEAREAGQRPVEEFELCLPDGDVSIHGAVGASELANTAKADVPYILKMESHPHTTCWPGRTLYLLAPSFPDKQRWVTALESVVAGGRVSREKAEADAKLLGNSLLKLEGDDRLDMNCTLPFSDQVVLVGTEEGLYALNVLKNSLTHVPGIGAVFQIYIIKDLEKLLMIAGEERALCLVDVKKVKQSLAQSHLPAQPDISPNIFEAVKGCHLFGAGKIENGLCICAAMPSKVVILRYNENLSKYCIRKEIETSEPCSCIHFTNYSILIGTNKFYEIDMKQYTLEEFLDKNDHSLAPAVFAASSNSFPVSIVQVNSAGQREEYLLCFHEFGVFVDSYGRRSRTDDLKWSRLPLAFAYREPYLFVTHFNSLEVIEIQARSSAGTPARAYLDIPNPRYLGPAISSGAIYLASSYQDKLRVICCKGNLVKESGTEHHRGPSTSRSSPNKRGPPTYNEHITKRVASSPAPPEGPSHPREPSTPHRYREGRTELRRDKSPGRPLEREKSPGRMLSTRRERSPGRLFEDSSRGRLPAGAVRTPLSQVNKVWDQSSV

- % of control [1]: 91%
Structure (SMILES): CC(=O)c1cc(-c2ccccc2OCC2CC2)c2ncccn12
- activity [2]: 89%

Structure (SMILES): O=C(NOC[C@H](O)CO)c1ccc(F)c(F)c1Nc1ccc(I)cc1F
- % of control [3]: 90%

- IC50 [4]: 99 nM
Structure (SMILES): CCC(=O)N1CC[C@H](Nc2ncnc3c2CN(c2cnc(OC)c(C(F)(F)F)c2)CC3)C1 [LENIOLISIB]

- % of control [5]: 100%
Structure (SMILES): CCN(CC)CCCCNc1ncc2cc(-c3cc(OC)cc(OC)c3)c(NC(=O)NC(C)(C)C)nc2n1

- % of inhibition [6]: 22.6%
Structure (SMILES): CC[C@@H]1[C@H](F)C(=O)N[C@@H]1COc1nccc2cc(C(N)=O)c(OC)cc12 [ZIMLOVISERTIB]

Structure (SMILES): COc1cc(Nc2nc(C)cc(-c3cnn4nc(OC)ccc34)n2)cc(C(F)(F)F)c1
- % of control [7]: 97%
- % of control [8]: 100%

Structure (SMILES): CN(C)C/C=C/C(=O)Nc1ccc(C(=O)N2CCCC(Nc3ncc(Cl)c(-c4c[nH]c5ccccc45)n3)C2)cc1 (centres undefined)
- % of control [9]: 100%

Structure (SMILES): C=CC(=O)Nc1ccc(C(=O)Nc2[nH]nc3c2CN(C(=O)N[C@H](CN(C)C)c2ccccc2)C3(C)C)cc1
- % of engagement [10]: -4.1%

Structure (SMILES): COc1cc(N(C)c2ccnc3ccc(C(F)(F)F)cc23)cc(OC)c1OC
- % binding [11]: 69%

Structure (SMILES): O[C@H]1CC[C@H](Nc2ncc3nc(Nc4c(F)cc(F)cc4F)n([C@H]4CCOC4)c3n2)CC1
- % of control [12]: 100%
- % of control [13]: 99%

Structure (SMILES): N#Cc1cccc(-c2c[nH]c3ncnc(N4CCOCC4)c23)c1
- % of control [14]: 100%
